Earlier results in patent US9655905B2, “Treatment of sickle cell disease” (KING ABDULLAH UNIVERSITY OF SCIENCE AND TECHNOLOGY, priority 2011, dated 2017).

Legend:
[1] = test system: NO; conditions: for Effect on NO: Table 6, vasodilator, down in SCD
[2] = test system: ET-1; conditions: for Effect on ET-1: Table 6, vasoconstrictor, up in SCD; for levels of vasoconstrictor ET-1: cited literature
[3] = test system: ET-3; design: key to Effect on ET-3: increases protein levels; decrease: reduces protein levels; exert no effect on protein levels; not known: has not been experimentally determined
[4] = test system: NFkB; conditions: for Effect on NFkB: Table 6, activator of endothelial cells, up in SCD
[5] = test system: eNOS; conditions: for Effect on eNOS: Table 6, inhibitor of endothelial cell activation, down in SCD
[6] = test system: TNFα; conditions: for Effect on TNFα: Table 6, cytokine/inflammatory, up in SCD; for levels of TNF-α: cited literature
[7] = test system: IL-1β; conditions: for Effect on IL-1β: Table 6, cytokine/inflammatory, up in SCD
[8] = test system: IL-8; design: key to Effect on IL-8: increases protein levels; decrease: reduces protein levels; exert no effect on protein levels; not known: has not been experimentally determined
[9] = test system: IL-6; conditions: for Effect on IL-6: Table 6, chemokine/inflammatory, up in SCD
[10] = test system: IL-3; design: key: increases protein levels; decrease: reduces protein levels; exert no effect on protein levels; not known: has not been experimentally determined; conditions: Table 6; inflammatory, up in SCD
[11] = test system: GM-CSF; design: key to Effect on GM-CSF: increases protein levels; decrease: reduces protein levels; exert no effect on protein levels; not known: has not been experimentally determined
[12] = test system: IL-10; conditions: for Effect on IL-10: Table 6, anti-inflammatory; for levels of anti-inflammatory mediator IL-10: cited literature
[13] = test system: VCAM-1; design: key to Effect on VCAM-1: increases protein levels; decrease: reduces protein levels; exert no effect on protein levels; not known: has not been experimentally determined
[14] = test system: ICAM-1; conditions: for Effect on ICAM-1: Table 6, adhesion, up in SCD
[15] = test system: SELP; conditions: for Effect on SELP: Table 6, adhesion, up in SCD
[16] = test system: SELE; conditions: for Effect on SELE: Table 6, adhesion, up in SCD
[17] = test system: VLA-4; design: key to Effect on VLA-4: increases protein levels; decrease: reduces protein levels; exert no effect on protein levels; not known: has not been experimentally determined
[18] = test system: CD36; design: key to Effect on CD36: increases protein levels; decrease: reduces protein levels; exert no effect on protein levels; not known: has not been experimentally determined
[19] = test system: FN1; conditions: for Effect on FN1: Table 6, coagulatory, up in SCD
[20] = test system: erythrocyte-endothelial adhesion; conditions: HU therapy (Gambero, et al 2007)
[21] = test system: fetal hemoglobin (HbF); conditions: via NO-cGMP signaling pathway (Cokic, et al 2003)
[22] = test system: (G) gamma-globin promoter
[23] = test system: K562 reporter cell line
[24] = test system: ROS
[25] = test system: HIF-1
[26] = test system: TF
[27] = test system: cGMP; conditions: Dai, et al 2011
[28] = test system: leukocyte-endothelial adhesion; conditions: colonic UR injury (Santen, et al 2010)
[29] = HU in SCD, endothelial adhesion molecule
[30] = on the surface of erythrocytes, HU therapy
[31] = Table 6, activator of endothelial cells, up in SCD
[32] = colonic UR injury (Santen, et al 2010)

NC(=O)NO [HU, Hydroxyurea]
no demonstrable effects: levels of the pro-coagulatory molecule fibronectin ([19]; HU (Saleh, et al 1999))
no effect: levels of IL-8 ([8]; HU therapy (Lanaro, et al 2009)) | Effect on FN1 [19]
increased: NO bioavailability ([1]; HU treatment of SCD (Conran, et al 2004))
decreasing: levels of vasoconstrictor ET-1 [2] | levels of vasoconstrictor ET-3 ([3]; HU in SCD (Makis, et al 2004)) | levels of sVCAM-1 [13, 29] | levels of sICAM-1 [14, 29] | levels of sSELP [15, 29] | levels of sSELE [16, 29]
decrease: Effect on ET-1 [2] | Effect on ET-3 ([3]; Table 6, vasoconstrictor, up in SCD) | Effect on NFkB [4] | Effect on TNFα [6] | Effect on GM-CSF ([11]; Table 6, inflammatory, up in SCD) | Effect on VCAM-1 ([13]; Table 6, adhesion, up in SCD) | Effect on ICAM-1 [14] | Effect on SELP [15] | Effect on SELE [16] | Effect on VLA-4 ([17]; Table 6, adhesion, up in SCD) | Effect on CD36 ([18]; Table 6, adhesion, up in SCD)
increase: Effect on NO [1] | Effect on eNOS [5] | Effect on IL-1β [7] | Effect on IL-8 ([8]; Table 6, chemokine/inflammatory, up in SCD) | Effect on IL-6 [9] | Effect on IL-3 [10] | Effect on IL-10 [12] | levels of anti-inflammatory mediator IL-10 [12]
increases: expression of IL-8 ([8]; HU (Laurance, et al 2010)) | expression of IL-6 ([9]; HU (Laurance, et al 2010))
increasing: production of fetal hemoglobin (HbF)-containing erythrocytes [21]
decreased: levels of TNF-α [6] | levels of GM-CSF ([11]; HU therapy (Conran, et al 2007))
reducing: gene and protein expression of VLA-4 [17, 30] | gene and protein expression of CD36 [18, 30]
reduce: erythrocyte-endothelial adhesion [20]

C=C1CC[C@H]2C(C)(C)CCC[C@]2(C)[C@H]1C/C=C1/C(=O)OC[C@@H]1O [Isocoronarin D]
75-80%: cell viability [23]
little to no: toxicity associated with HbF induction [23]
highest: EGFP inducing potency or HbF production ([22]; rank among seven diterpenes (Chokchaisiri, et al 2010))
induces: production of HbF [22]

O=S(=O)(c1cccc2c(O)nccc12)N1CCCNCC1 [Hydroxyfasudil, 5-(1,4-diazepane-1-sulfonyl)isoquinolin-1-ol]
diminishing: leukocyte-endothelial adhesion [28]
increased: levels of NO ([1]; Dai, et al 2011) | levels of eNOS ([5]; Dai, et al 2011) | levels of cGMP [27]
increase: Effect on NO [1] | Effect on eNOS [5] | Effect on IL-10 [12] | levels of anti-inflammatory mediator IL-10 [12]
reduce: NFκB ([4]; He, et al 2008) | HIF-1α ([25]; Takata, et al 2008) | TF ([26]; Satoh, et al 2010) | IL-6 levels ([9]; after hypoxia/reoxygenation injury in brain tissue (Ding, et al 2010)) | ICAM-1 [14, 32] | ICAM-1 expression ([14]; diabetes-induced microvascular damage (Arita, et al 2009)) | SELP [15, 32] | SELE [16, 32]
decrease: Effect on ROS ([24]; Table 6, IR injury-related molecule, up in SCD) | Effect on ET-1 [2] | Effect on NFkB [4] | Effect on HIF-1 [25, 31] | Effect on TF [26, 31] | Effect on TNFα [6] | levels of TNF-α [6] | IL-1β ([7]; He, et al 2008) | Effect on IL-1β [7] | Effect on IL-6 [9] | Effect on ICAM-1 [14] | Effect on SELP [15] | Effect on SELE [16] | Effect on FN1 [19]
suppress: injury-induced generation of ROS ([24]; UR injury (Shiotani, et al 2004)) | levels of vasoconstrictor ET-1 [2]
